In patent publication US4824937A, “Synthetic natriuretic peptides” (501 Advanced Peptide Development, Ltd., priority 1986, dated 1989):
Ends that are not written are not given here.

Columns and labels:
[1] = test system: male normotensive Sprague-Dawley rats; assay: Diuretic activity: urine flow after i.v. bolus in anesthetized rats; assay type: in vivo, rat; conditions: 3.5 mcg/kg i.v. bolus; for URINE FLOW: 8 rats
Protocol: (§1) The diuretic activities of the synthetic natriuretic peptides (SNP) of this invention and their effects upon electrolyte excretion are determined in male normotensive Sprague-Dawley rats. The animals are anesthetized with sodium pentobarbital (55 mg/kg), the femoral vein is cannulated for injection of the test compound and for infusion of Ringer's solution, the bladder is cannulated for urine collection, and the trachea is cannulated to ensure a clean airway. The animals are infused with Ringer's solution at a rate of 1.2 ml/20 min. for 20 minutes, the infusion rate is then decreased to 1.2 ml/hour for a further 20 minutes, and urine collections are started at the end of that period. Three 10-minute collections are taken as control samples, and at the end of the third 10-minute period the SNP to be tested is injected as a bolus over 30 seconds into the femoral vein. Infusion of Ringer's solution at 1.2 ml/hour is continued for the duration of the experiment, and urine samples are collected every 10 minutes over 4 hours, their respective volumes are determined, and the concentrations of Na^+, Cl^-, and K^+ are measured using a NovaBiomedical electrolyte analyzer. The above determinations are done on samples pooled from all animals in a given experiment, and urine flow is calculated as ml/min./kg body weight while electrolyte concentrations are calculated as mmol/l/gm kidney tissue.
(§2) Details of the assay method are described above, and it remains only to be stated that 8 male normotensive Sprague-Dawley rats are used in each group. […] Urine flow then decreases sharply and is at control volumes at about 40 minutes where it remains until about 140 minutes.

[2] = test system: male normotensive Sprague-Dawley rats; assay: Effects upon electrolyte excretion (Na+, K+, Cl- in urine) after i.v. bolus in anesthetized rats; assay type: in vivo, rat; conditions: 3.5 mcg/kg i.v. bolus; for ELECTROLYTE EXCRETION Cl^- / ELECTROLYTE EXCRETION K^+ / ELECTROLYTE EXCRETION Na^+: pooled urine of 8 rats
Protocol: as §1, §2

Substance: BG-3009: known ANP composed of 28 amino acid residues, identical with the ANP described by Flynn et al. (SLRRSSCFGGRIDRIGAQSGLGCNSFRY; not fully specified; ends and bridges not checked; UniProt P01161 123-150, looked up)
- effect on urine flow, late phase (in words) ([1]; from 150 minutes (BG-3009: after 130 minutes) to the end of the experiment): hardly noticeable and may not be significant
- effect on urine flow, early phase (in words) ([1]; from injection up to 130-140 minutes): shows similar effects up to 130 minutes
- URINE FLOW ([1]; 10 min after injection): 333.7 ml./min./kg. body wt × 10^-3
- URINE FLOW ([1]; 20 min after injection): 55.7 ml./min./kg. body wt × 10^-3
- URINE FLOW ([1]; 30 min after injection): 23.3 ml./min./kg. body wt × 10^-3
- URINE FLOW ([1]; 40 min after injection): 16.4 ml./min./kg. body wt × 10^-3
- URINE FLOW ([1]; 50 min after injection): 16.9 ml./min./kg. body wt × 10^-3
- URINE FLOW ([1]; 60 min after injection): 16.7 ml./min./kg. body wt × 10^-3
- URINE FLOW ([1]; 70 min after injection): 16.4 ml./min./kg. body wt × 10^-3
- URINE FLOW ([1]; 80 min after injection): 16.4 ml./min./kg. body wt × 10^-3
- URINE FLOW ([1]; 90 min after injection): 15.2 ml./min./kg. body wt × 10^-3
- URINE FLOW ([1]; 100 min after injection): 16.0 ml./min./kg. body wt × 10^-3
- URINE FLOW ([1]; 110 min after injection): 17.2 ml./min./kg. body wt × 10^-3
- URINE FLOW ([1]; 120 min after injection): 17.6 ml./min./kg. body wt × 10^-3
- URINE FLOW ([1]; 130 min after injection): 23.4 ml./min./kg. body wt × 10^-3
- URINE FLOW ([1]; 140 min after injection): 22.6 ml./min./kg. body wt × 10^-3
- URINE FLOW ([1]; 150 min after injection): 21.4 ml./min./kg. body wt × 10^-3
- URINE FLOW ([1]; 160 min after injection): 19.7 ml./min./kg. body wt × 10^-3
- URINE FLOW ([1]; 170 min after injection): 19.9 ml./min./kg. body wt × 10^-3
- URINE FLOW ([1]; 180 min after injection): 20.5 ml./min./kg. body wt × 10^-3
- URINE FLOW ([1]; 190 min after injection): 22.3 ml./min./kg. body wt × 10^-3
- URINE FLOW ([1]; 200 min after injection): 22.3 ml./min./kg. body wt × 10^-3
- URINE FLOW ([1]; 210 min after injection): 20.7 ml./min./kg. body wt × 10^-3
- URINE FLOW ([1]; 220 min after injection): 22.7 ml./min./kg. body wt × 10^-3
- URINE FLOW ([1]; 230 min after injection): 28.6 ml./min./kg. body wt × 10^-3
- URINE FLOW ([1]; 240 min after injection): 25.9 ml./min./kg. body wt × 10^-3
- effect on Na^+ excretion, early phase (in words) [2]: sharp increases in Na^+ excretion for the first 30-40 minutes
- effect on K^+ and Cl^- excretion (in words) ([2]; early phase): short-lasting decreases in K^+ and Cl^- excretion returning to control values after about 60 minutes
- effect on Na^+ and Cl^- excretion, late phase (in words) ([2]; from about 140-160 minutes to 240 minutes): slight increase in Na^+ and Cl^- excretion
- ELECTROLYTE EXCRETION Cl^- ([2]; 10 min after injection): 10.1 mmol/l./gm. kidney tissue
- ELECTROLYTE EXCRETION K^+ ([2]; 10 min after injection): 1.5 mmol/l./gm. kidney tissue
- ELECTROLYTE EXCRETION Na^+ ([2]; 10 min after injection): 10.0 mmol/l./gm. kidney tissue
- ELECTROLYTE EXCRETION Cl^- ([2]; 20 min after injection): 12.8 mmol/l./gm. kidney tissue
- ELECTROLYTE EXCRETION K^+ ([2]; 20 min after injection): 2.4 mmol/l./gm. kidney tissue
- ELECTROLYTE EXCRETION Na^+ ([2]; 20 min after injection): 13.2 mmol/l./gm. kidney tissue
- ELECTROLYTE EXCRETION Cl^- ([2]; 30 min after injection): 12.7 mmol/l./gm. kidney tissue
- ELECTROLYTE EXCRETION K^+ ([2]; 30 min after injection): 4.9 mmol/l./gm. kidney tissue
- ELECTROLYTE EXCRETION Na^+ ([2]; 30 min after injection): 12.4 mmol/l./gm. kidney tissue
- ELECTROLYTE EXCRETION Cl^- ([2]; 40 min after injection): 13.0 mmol/l./gm. kidney tissue
- ELECTROLYTE EXCRETION K^+ ([2]; 40 min after injection): 5.6 mmol/l./gm. kidney tissue
- ELECTROLYTE EXCRETION Na^+ ([2]; 40 min after injection): 11.1 mmol/l./gm. kidney tissue
- ELECTROLYTE EXCRETION Cl^- ([2]; 50 min after injection): 14.0 mmol/l./gm. kidney tissue
- ELECTROLYTE EXCRETION K^+ ([2]; 50 min after injection): 6.6 mmol/l./gm. kidney tissue
- ELECTROLYTE EXCRETION Na^+ ([2]; 50 min after injection): 8.8 mmol/l./gm. kidney tissue
- ELECTROLYTE EXCRETION Cl^- ([2]; 60 min after injection): 13.5 mmol/l./gm. kidney tissue
- ELECTROLYTE EXCRETION K^+ ([2]; 60 min after injection): 7.4 mmol/l./gm. kidney tissue
- ELECTROLYTE EXCRETION Na^+ ([2]; 60 min after injection): 7.8 mmol/l./gm. kidney tissue
- ELECTROLYTE EXCRETION Cl^- ([2]; 70 min after injection): 13.7 mmol/l./gm. kidney tissue
- ELECTROLYTE EXCRETION K^+ ([2]; 70 min after injection): 7.7 mmol/l./gm. kidney tissue
- ELECTROLYTE EXCRETION Na^+ ([2]; 70 min after injection): 7.1 mmol/l./gm. kidney tissue
